Experiment [1] addresses T1, apoE4 (Homo sapiens, UniProt P02649, C130R).
T1 construct: made in house; host or cells: primary forebrain astrocytes of GFAP-human apoE4 transgenic mice
The experiment is described as follows: Thioflavin-T aggregation inhibition: apoE4-promoted Aβ1-42 fibril formation. Format: biochemical. The protocol: (§1) Recombinant apoE3 and apoE4 were purchased from Calbiochem Corp. (San Diego, Calif.). Lipidated apoE3 and apoE4 complexes were prepared from primary cultures of astrocytes derived from Tg mice in which human apoE3 or apoE4 were expressed under the control of the astrocyte-specific glial fibrillary acidic protein (GFAP) promoter as described previously (Fagan et al., “Unique Lipoproteins Secreted by Primary Astrocytes from Wild Type, ApoE (−/−), and Human ApoE Transgenic Mice,” J. Biol. Chem. 274:30001-30007 (1999); DeMattos et al., “Purification and Characterization of Astrocyte-secreted Apolipoprotein E and J-Containing Lipoproteins from Wild-type and Human ApoE Transgenic Mice,” Neurochemistry International 39:415-425 (2001); Sun et al., “Glial Fibrillary Acidic Protein-apolipoprotein E (apoE) Transgenic Mice: Astrocyte-specific Expression and Differing Biological Effects of Astrocyte-secreted ApoE3 and ApoE4 Lipoproteins,” J. Neurosci. 18:3261-3272 (1998); which are hereby incorporated by reference in their entirety). […] The purity of the apoE preparation was assessed by SDS-PAGE.
(§2) Aβ1-40 and Aβ1-42 were studied for comparison. […] Samples containing 15 μg of incubated peptides were taken at indicated intervals and fluorescence was measured as previously described in a Perkin-Elmer LS-50B fluorescence spectrophotometer (Perkin Elmer Instruments, Shelton, Conn.) (Wisniewski et al., “Acceleration of Alzheimer's Fibril Formation by Apolipoprotein E in vitro,” Am. J. Pathol. 145:1030-1035 (1994); Golabek et al., “The Interaction Between Apolipoprotein E and Alzheimer's Amyloid β-peptide is Dependent on β-peptide Conformation,” J. Biol. Chem. 271:10602-10606 (1996); which are hereby incorporated by reference in their entirety). […] Differences in amount of fibrils formed by the different peptides were evaluated by means of a repeated measures ANOVA, followed by a Tukey HSD post-hoc test using Statistica (version 6.1) (StatSoft Inc., Tulsa, Okla.). […]

A further experiment deals with T2, apoE3 (Homo sapiens, UniProt P02649).
T2 construct: made in house; host or cells: primary forebrain astrocytes of GFAP-human apoE3 transgenic mice
The experiment is described as follows: Thioflavin-T aggregation inhibition: apoE3-promoted Aβ1-42 fibril formation. It counts as biochemical. The conditions noted are these: for relative reduction in fluorescence: apoE3 preincubated with Aβ12-28P, then added to Aβ1-42. The protocol: as §1, §2

Experiment [2] deals with T1, apoE4. The experiment is described as follows: Toxicity rescue: neutralizing apoE4's effect on Aβ1-42 neurotoxicity, MTT assay in SK-N-SH cells. As to conditions: Aβ1-42 100 μmol/L, apoE4 0.5 μmol/L preincubated with 0.5 μmol/L peptide; two day p<0.05, 6 day p<0.01. Format: cell-based. The protocol: (§3) All experiments were run in triplicate. The results from cell culture neurotoxicity studies were evaluated by one-way analysis of variance, followed by a Dunnett's test as a post hoc analysis.
(In general: Formazan colour is commonly taken as a measure of viable cells.)

The subject of another experiment is Aβ1-42. The experiment is described as follows: Aβ1-42 toxicity in SK-N-SH cells with peptide added without apoE, MTT assay. It counts as cell-based, human. The protocol: as §3
Experiment [3] concerns the target T1, apoE4. The experiment is described as follows: Competitive inhibition ELISA: apoE4 binding to immobilized Aβ1-40. The protocol:
Lipidated apoE4 100 nM was preincubated with an increasing concentration of Aβ12-28P (0-400 nM) in 10 mM Tris buffer pH 7.4 for three hours at 37° C., and then added to the plate (100 μL/well). […] The color reaction was developed with a 3,3,5,5-tetramethybenzidine substrate (Sigma, St. Louis, Mo.), stopped with 2M sulfuric acid, and optical density (“OD”) was read at 450 nm on a 7520 Microplate Reader (Cambridge Technology, Watertown, Mass.). Non-specific binding was determined using bovine serum albumin and/or omitting the apoE4 in the assay. OD values were converted to percentages with the binding of apoE4 in the absence of inhibitor being considered as 100%. The mean±standard deviation from three independent duplicate experiments was plotted in FIG. 3 and analyzed by a one site competition nonlinear regression fit algorithm using GraphPad Prism v4.0 (GraphPad Software, San Diego, Calif.).
On the technique in general: In an ELISA, binding on a coated surface is turned into a signal by an enzyme label.

SMILES strings stand for the structures. Entries after “also recorded” stand apart in the source; their conditions may differ. Where two headings read alike, the source gives them in different places. Square brackets hold non-standard residues; d marks the D form. Peptide text beside a SMILES is read from it.

T2 sequence (P02649 19-317): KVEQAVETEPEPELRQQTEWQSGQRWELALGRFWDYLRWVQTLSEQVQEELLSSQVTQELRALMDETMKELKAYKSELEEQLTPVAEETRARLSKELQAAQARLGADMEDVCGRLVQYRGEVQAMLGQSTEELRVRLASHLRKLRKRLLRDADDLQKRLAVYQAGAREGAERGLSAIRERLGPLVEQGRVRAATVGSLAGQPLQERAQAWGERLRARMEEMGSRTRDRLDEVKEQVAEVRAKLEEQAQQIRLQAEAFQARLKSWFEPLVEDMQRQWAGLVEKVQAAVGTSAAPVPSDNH
T1 sequence (P02649 19-317 C130R): as the sequence (P02649 19-317) above, with C112R counted along it

For orientation: IC50 means the midpoint of a concentration-inhibition curve. A high value points to weaker potency. The term Ki denotes the dissociation constant of the complex between target and ligand, obtained from inhibition or displacement. `CC(=O)N[C@@H](C(=O)N[C@H](Cc1c[nH]cn1)C(=O)N[C@H](Cc1c[nH]cn1)C(=O)N[C@H](CCC(N)=O)C(=O)N[C@H](CCCCN)C(=O)N[C@H](CC(C)C)C(=O)N1CCC[C@@H]1C(=O)N[C@H](Cc1ccccc1)C(=O)N[C@H](Cc1ccccc1)C(=O)N[C@H](C)C(=O)N[C@H](CCC(=O)O)C(=O)N[C@H](CC(=O)O)C(=O)N[C@@H](C(=O)NCC(=O)N[C@H](CO)C(=O)N[C@H](CC(N)=O)C(=O)N[C@H](CCCCN)C(N)=O)C(C)C)C(C)C` [Aβ12-28P] (Ac-[dV][dH][dH][dQ][dK][dL][dP][dF][dF][dA][dE][dD][dV]G[dS][dN][dK]-NH2): the “relative reduction in fluorescence” value at apoE4 [1] was determined as 25.3%; at apoE4 [1] (apoE4 preincubated with Aβ12-28P, then added to Aβ1-42, day six), 52.3%; at apoE3 (after 24 h of incubation) it was 14.5%; at apoE3 (day six), 48.3%. At apoE4 [1] (apoE4 preincubated with equimolar Aβ12-28P, p<0.01), the “chaperoning effect of apoE4 on Aβ1-42 fibril formation” value is “significantly reduced”. The “chaperoning effect of apoE3 on Aβ1-42 fibril formation” value at apoE3 (apoE3 preincubated with equimolar Aβ12-28P, p<0.05) is “significantly reduced”. The “rescue of cell viability from apoE4-enhanced Aβ1-42 toxicity” value on apoE4 [2] is given as “significant rescue of the cell viability; also recorded: could be neutralized”. Moreover, the “cell viability, Aβ1-42 incubated with peptide” value with Aβ1-42 (10 μmol/L Aβ1-42 with 10 μmol/L peptide) is given as “Much more striking improvement in cell viability”. In addition, the “cell viability, Aβ1-42 incubated with peptide without apoE” value in the experiment on Aβ1-42 (Aβ1-42 100 μmol/L, peptide 0.5 μmol/L, six days) was “slightly increased cell viability”. This molecule also came in with a concentration for half-maximal inhibition (IC50) at apoE4 [3] (100 nM lipidated apoE4 preincubated with 0-400 nM peptide, one-site competition fit) of 36.7 nM. Moreover, the Ki on apoE4 [3] (read-out: inhibition constant (KI)) stood at 11.4 nM.

The record behind these values is patent US7632816B2, “Treatment of Alzheimer amyloid deposition” (New York University, priority 2003, dated 2009).
